The source of these data is patent US20130029970A1 (priority 2009, published 2013).

The target in one assay is T1, human CB1 receptors (Homo sapiens, UniProt P21554).
T1 construct: (cDNA clone) CNR01L000
The experiment in a line: cAMP assay in HEK-293 cells, hCB1 agonist. The class given is cell-based. To be noted: inhibition of forskolin-stimulated cAMP, HEK-293 cells. In outline: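 Agonist EC50 taken as concentration giving half inhibition of forskolin-driven cAMP, normalized to forskolin maximum, from sigmoidal curves. Whole HEK-293 cells stably expressing hCB1, in HEPES/BSA-containing HBSS, exposed 30 min at 37° C. to compound with forskolin (90 uM in 3× dilution); cAMP read after lysis.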
Background: Cyclic AMP is a second messenger, typically raised through Gs and lowered through Gi signalling.

The target of a further assay is T2, human CB2 (hCB2) (Homo sapiens, UniProt P34972).
T2 construct: (cDNA clone) CNR0200000
T2 sequence (P34972 whole entry): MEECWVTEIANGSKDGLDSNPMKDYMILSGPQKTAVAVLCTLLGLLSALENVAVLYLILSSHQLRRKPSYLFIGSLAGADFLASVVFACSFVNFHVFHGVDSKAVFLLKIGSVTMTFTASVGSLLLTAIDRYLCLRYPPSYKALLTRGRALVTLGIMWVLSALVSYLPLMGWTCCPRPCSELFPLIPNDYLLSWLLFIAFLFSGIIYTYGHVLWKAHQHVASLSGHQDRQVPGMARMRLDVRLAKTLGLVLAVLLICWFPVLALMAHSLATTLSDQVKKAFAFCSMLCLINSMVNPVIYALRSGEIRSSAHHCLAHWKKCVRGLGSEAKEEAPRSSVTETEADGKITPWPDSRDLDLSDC
Kind of assay: 35S GTPγS binding assay, hCB2 agonist. The class given is biochemical. The protocol: (§1) cDNA expression clones for human CB1 (hCB1, Genbank Accession No. AY225225) and human CB2 (hCB2, Genbank Accession No. AY242132) expressed in vector pcDNA3.1+ were purchased from UMR cDNA Resource Center, Rolla, Mo. (Clone ID CNR01L000 for hCB1; CNR0200000 for hCB2).
Membranes were isolated from transfected cells as follows. Monolayers of cultured cells were washed twice with phosphate-buffered saline (PBS). […] Homogenates were centrifuged 10 minutes at 1000×g at 4° C. The supernatant was collected and was centrifuged for 1 hour at 40,000×g. The supernatant was then decanted and the resulting pellet was re-suspended in 20 mM HEPES, pH 7.4, 5 mM MgCl2, 1 mM EDTA, 10% sucrose with complete cocktail protease inhibitors. Protein concentration of membrane suspensions were measured by Bradford Protein Assay using bovine serum albumin as the standard (BioRad catalog #500-0006). Protein concentrations of membrane suspensions were adjusted with the final buffer in the range of 5 to 10 mg/mL and were stored at −80° C. until further use.
(§2) Functional assays which monitor G-protein coupled receptor or downstream cellular responses can be used to characterize potential CB1 receptor and/or CB2 receptor agonist or antagonist activities. Direct activation (or inhibition of activation) can be monitored using a GTPγS assay (membrane-based assay) or cAMP assay (whole cell-based assay).
(§3) ^35S GTPγS binding assays were performed by incubating recombinant cell membranes prepared above (5 μg) in the presence of scintillation proximity assay beads (SPA beads, Catalog #RPNQ0252 GE Healthcare, Buckinghamshire, England) in GTPγS binding buffer [50 mM HEPES (pH 7.4), 100 mM NaCl, 5 mM MgCl2, 0.001% saponin (Sigma catalog #S4521)] supplemented with 20 uM GDP (Sigma catalog #G7127) in the presence or absence of test compound. The reaction was carried out in 96-well microplates with 0.1 nM [^35S]GTPγS (specific activity=1250 Ci/mmol; Perkin Elmer catalog #NEG030X250UC) in a final volume of 100 uL. After a 90 min room temperature incubation, the reaction was analyzed using a scintillation counter (Perkin Elmer Microbeta instrument). Binding data were analyzed using GraphPad Prism.
(GTPγS is a poorly hydrolysed GTP analogue; its binding reports G protein activation.)

The target in the next assay is T3, human CB1 (hCB1) (Homo sapiens, UniProt P21554).
T3 construct: (cDNA clone) CNR01L000
T3 sequence (P21554 whole entry): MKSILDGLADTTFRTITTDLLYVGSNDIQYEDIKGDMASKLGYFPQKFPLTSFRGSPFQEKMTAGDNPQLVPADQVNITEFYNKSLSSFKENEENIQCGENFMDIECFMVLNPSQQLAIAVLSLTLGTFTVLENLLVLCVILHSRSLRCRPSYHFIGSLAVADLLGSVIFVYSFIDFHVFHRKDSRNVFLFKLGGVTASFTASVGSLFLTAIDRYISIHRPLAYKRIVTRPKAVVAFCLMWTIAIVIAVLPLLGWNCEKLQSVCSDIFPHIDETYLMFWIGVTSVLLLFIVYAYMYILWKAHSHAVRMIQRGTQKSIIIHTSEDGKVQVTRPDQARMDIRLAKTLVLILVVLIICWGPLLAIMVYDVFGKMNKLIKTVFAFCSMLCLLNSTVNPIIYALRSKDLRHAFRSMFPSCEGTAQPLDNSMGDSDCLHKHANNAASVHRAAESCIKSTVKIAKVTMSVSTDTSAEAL
The experiment in a line: 35S GTPγS binding assay, hCB1 agonist. Type of assay: biochemical. The following applies: GTPγS agonist, HEK-293 membranes; read-out: hCB1 EC50 (GTPyS ag).
Text: as §1
(§4) Stable, HEK-293-derived cell lines that recombinantly express hCBI or hCB2 were established. In brief, the clone hCB1 (CNR IL) or hCB2 (CNR2) was transfected into human embryonic kidney cells (HEK-293) using Lipofectamine 2000 (Gibco, Cat#11668-019) according to the manufacturer's protocol. Transfected clones were isolated by single colony purification and clones were screened for receptor expression using a whole cell, ^3H—CP 55,940 radioligand binding assay. HEK-293 stable cells were maintained in Dulbecco's modified Eagles medium (DMEM) containing 10% fetal bovine serum, 2 mM L-glutamine and 0.5 mg/mL G-418.
(§5) Membranes were isolated from transfected cells as follows. Monolayers of cultured cells were washed twice with phosphate-buffered saline (PBS). Cells were scraped into 20 mM HEPES, pH 7.4, 10 mM EDTA containing complete cocktail protease inhibitors (Roche, Catalog #11 697 498 001) and were homogenized by an electric-powered mechanical probe homogenizer (Omni GLH; probe G7-195S) for 40 seconds at 7000 rpm. Homogenates were centrifuged 10 minutes at 1000×g at 4° C. The supernatant was collected and was centrifuged for 1 hour at 40,000×g. The supernatant was then decanted and the resulting pellet was re-suspended in 20 mM HEPES, pH 7.4, 5 mM MgCl2, 1 mM EDTA, 10% sucrose with complete cocktail protease inhibitors. Protein concentration of membrane suspensions were measured by Bradford Protein Assay using bovine serum albumin as the standard (BioRad catalog #500-0006). Protein concentrations of membrane suspensions were adjusted with the final buffer in the range of 5 to 10 mg/mL and were stored at −80° C. until further use.
as §2, §3

For the next assay, the target named is T4, human CB2 receptors (Homo sapiens, UniProt P34972).
T4 construct: (cDNA clone) CNR0200000
T4 sequence (P34972 whole entry): as the sequence (P34972 whole entry) above
Kind of assay: cAMP assay in HEK-293 cells, hCB2 agonist. To be noted: for hCB2 EC50 (cAMP ag, nM): inhibition of forskolin-stimulated cAMP, HEK-293 cells. Type of assay: cell-based. A digest of the protocol: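 Stable hCB2 HEK-293 cells in HBSS/10 mM HEPES/0.1% fatty-acid-free BSA incubated 30 min at 37° C with compound; forskolin 90 uM in 3× compound mix.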

For assay [1], the target named is T5, recombinant human cannabinoid receptor CB2 (Homo sapiens, UniProt P34972).
T5 construct: (cDNA clone) CNR0200000
T5 sequence (P34972 whole entry): as above
The experiment in a line: Cannabinoid receptor radioligand binding assay, [3H]-CP 55,940 displacement, hCB2. In outline:
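Receptor source: membrane pellet (40,000×g) from transfected cells, stored in HEPES pH 7.4/MgCl2/EDTA/sucrose buffer.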

In assay [2] the target is T6, recombinant human cannabinoid receptor CB1 (Homo sapiens, UniProt P21554).
T6 construct: (cDNA clone) CNR01L000
T6 sequence (P21554 whole entry): as the sequence (P21554 whole entry) above
Kind of assay: Cannabinoid receptor radioligand binding assay, [3H]-CP 55,940 displacement, hCB1.
Text: as §4, §5
Radioligand binding assays were performed by incubating membranes (2-10 μg protein) prepared from HEK-293 cells expressing recombinant human cannabinoid receptors, CB1 or CB2, at room temperature with 0.5 nM cannabinoid receptor agonist, [^3H]-CP 55,940 (Perkin Elmer, catalog #NET1051) in 0.2 mL of binding buffer (50 mM Tris-HCl, pH 7.5, 5 mM MgCl2, 2.5 mM EDTA) and 0.1% fatty acid free bovine serum albumin (Sigma Cat. #A0821) for 90 minutes. A rapid filtration technique using Millipore FB filter plates (Catalog #MADVNOB) and filtration apparatus (Millipore system Catalog MAVM0960R) with vacuum aspiration was used to harvest and rinse labeled membranes (8 times with 0.2 mL of chilled binding buffer). The radioactivity bound to the filters was counted with 0.05 mL of liquid scintillant (UltraGold MV, PerkinElmer catalog #6013159) in a scintillation counter (Perkin Elmer Microbeta instrument). Nonspecific binding was determined in the presence of unlabeled 1 μM CP 55,940 (Sigma Aldrich, catalog #C1112). Binding data were analyzed using GraphPad Prism (GraphPad Software, Inc. San Diego, Calif.).

[3] abbreviates: GTPγS agonist, HEK-293 membranes, read-out: hCB2 EC50 (GTPyS ag).

Read-outs that look alike come from different tables or passages of the source. Bounds are passed on as bounds.

What is called EC50 is the midpoint of the concentration-response curve. Usually IC50 stands for the concentration needed to halve the response being measured.

T1 sequence (P21554 whole entry): as above

As for `COc1ccc(C(=O)c2cc3cc(C)n(CC4CCN(C(=O)OC(C)(C)C)CC4)c3s2)cn1` [Compound 179, tert-butyl 4((2-(6-methoxynicotinoyl)-5-methyl-6H-thieno[2,3-b]pyrrol-6-yl)methyl)piperidine-1-carboxylate], at human CB1 receptors, the “hCB1 EC50 (cAMP ag, nM)” value is “NS (NS means “Not Significant,” which means less than 30% agonist activity when compared to the positive control.)”. The EC50 at human CB2 (hCB2) (setting [3]) and on human CB1 (hCB1) was greater than 10 µM throughout.
With `COc1ccc(C(=O)c2cc3cc(C)n(CCNC4CCOCC4)c3s2)cn1` [Compound 163, (6-methoxypyridin-3-yl)(5-methyl-6-(2-((tetrahydro-2H-pyran-4-yl)amino)ethyl)-6H-thieno[2,3-b]pyrrol-2-yl)methanone], the “hCB1 EC50 (cAMP ag, nM)” value at human CB1 receptors is listed as “NS (NS means “Not Significant,” which means less than 30% agonist activity when compared to the positive control.)”. For the same molecule, the EC50 on human CB2 (hCB2) was 1 to 10 µM; at human CB2 receptors, 0.1 to 1 µM; on human CB1 (hCB1), greater than 10 µM.
On to `COc1ccc(C(=O)c2cc3cc(C)n(CCN4CCC(OC)CC4)c3s2)cn1` [Compound 156, (6-(2-(4-methoxypiperidin-1-yl)ethyl)-5-methyl-6H-thieno[2,3-b]pyrrol-2-yl)(6-methoxypyridin-3-yl)methanone], for which, at human CB1 receptors, the “hCB1 EC50 (cAMP ag, nM)” value is reported as “NS (NS means “Not Significant,” which means less than 30% agonist activity when compared to the positive control.)”. Moreover, the EC50 on human CB2 (hCB2) and at human CB1 (hCB1) was greater than 10 µM each time.
In the case of `COc1ccc(C(=O)c2cc3cc(C)n(CCN4CCCC4COCc4ccccc4)c3s2)cn1` (stereo not shown) [Compound 178, (6-(2-(2-((benzyloxy)methyl)pyrrolidin-1-yl)ethyl)-5-methyl-6H-thieno[2,3-b]pyrrol-2-yl)(6-methoxypyridin-3-yl)methanone], the “hCB1 EC50 (cAMP ag, nM)” value at human CB1 receptors is on record as “NS (NS means “Not Significant,” which means less than 30% agonist activity when compared to the positive control.)”. Further, the EC50 at human CB2 (hCB2) and at human CB1 (hCB1) was greater than 10 µM throughout. The “hCB2 EC50 (cAMP ag, nM)” value on human CB2 receptors is given as “NS (NS means “Not Significant,” which means less than 30% agonist activity when compared to the positive control.)”.
Turning to `COc1ccc(C(=O)c2cc3cc(C)n(CC4CCOC4)c3s2)cn1` (stereo not shown) [Compound 159, (6-methoxypyridin-3-yl)(5-methyl-6-((tetrahydrofuran-3-yl)methyl)-6H-thieno[2,3-b]pyrrol-2-yl)methanone], the “hCB1 EC50 (cAMP ag, nM)” value on human CB1 receptors was “NS (NS means “Not Significant,” which means less than 30% agonist activity when compared to the positive control.)”. Further, the values for the EC50 at human CB2 (hCB2), on human CB2 receptors and at human CB1 (hCB1) were greater than 10 µM, 1 to 10 µM and greater than 10 µM, respectively.
On to `COC(=O)Cn1c(C)cc2cc(C(=O)c3ccc(OC)nc3)sc21` [Compound 168, Methyl 2-(2-(6-methoxynicotinoyl)-5-methyl-6H-thieno[2,3-b]pyrrol-6-yl)acetate], for which, on human CB1 receptors, the “hCB1 EC50 (cAMP ag, nM)” value was “NS (NS means “Not Significant,” which means less than 30% agonist activity when compared to the positive control.)”. Moreover, the EC50 at human CB2 (hCB2) (setting [3]) and on human CB1 (hCB1) was greater than 10 µM throughout.
For `COc1ccc(C(=O)c2cc3cc(C)n(C)c3s2)cn1` [Compound 174, (5,6-dimethyl-6H-thieno[2,3-b]pyrrol-2-yl)(6-methoxypyridin-3-yl)methanone], the “hCB1 EC50 (cAMP ag, nM)” value on human CB1 receptors is “NS (NS means “Not Significant,” which means less than 30% agonist activity when compared to the positive control.)”. For the same molecule, the EC50 at human CB2 (hCB2) (setting [3]) and on human CB1 (hCB1) was greater than 10 µM each time.
For the molecule `COc1ccc(C(=O)c2cc3cc(C)n(C[C@@H]4COCCN4C)c3s2)cn1` [Compound 171, (R)-(6-methoxypyridin-3-yl)(5-methyl-6-((4-methylmorpholin-3-yl)methyl)-6H-thieno[2,3-b]pyrrol-2-yl)methanone], the “hCB1 EC50 (cAMP ag, nM)” value on human CB1 receptors was “NS (NS means “Not Significant,” which means less than 30% agonist activity when compared to the positive control.)”. The EC50 on human CB2 (hCB2) and on human CB1 (hCB1) was greater than 10 µM in each case.
Take `COc1ccc(C(=O)c2cc3cc(C)n(CCN4CCC(C(F)(F)F)CC4)c3s2)cn1` [Compound 181, (6-methoxypyridin-3-yl)(5-methyl-6-(2-(4-(trifluoromethyl)piperidin-1-yl)ethyl)-6H-thieno[2,3-b]pyrrol-2-yl)methanone]: the EC50 fell in the range of 0.1 to 1 µM on human CB2 (hCB2) and 1 to 10 µM at human CB1 (hCB1). For the same molecule, the “hCB2 EC50 (cAMP ag, nM)” value on human CB2 receptors was “NS (NS means “Not Significant,” which means less than 30% agonist activity when compared to the positive control.)”.
For `COc1ccc(C(=O)c2cc3cc(C)n(C(=S)SC)c3s2)cc1` [Compound 155, Methyl 2-(4-methoxybenzoyl)-5-methyl-6H-thieno[2,3-b]pyrrole-6-carbodithioate], the “hCB1 EC50 (cAMP ag, nM)” value on human CB1 receptors is recorded as “NS (NS means “Not Significant,” which means less than 30% agonist activity when compared to the positive control.)”. The EC50 at human CB2 (hCB2) (setting [3]) is 0.1 to 1 µM; at human CB1 (hCB1) it was greater than 10 µM.
As for `Cc1cc2cc(C(=O)c3cccc(Cl)c3Cl)sc2n1C` [Compound 20, (2,3-Dichlorophenyl)(5,6-dimethyl-6H-thieno[2,3-b]pyrrol-2-yl)methanone], the “hCB1 EC50 (cAMP ag, nM)” value on human CB1 receptors was “NS (NS means “Not Significant,” which means less than 30% agonist activity when compared to the positive control.)”. The EC50 at human CB2 (hCB2) was 0.1 to 1 µM. The 50% inhibitory concentration (IC50) in assay [1] was 1 to 10 µM; in assay [2] it was greater than 10 µM.
